Assay results reported in PubChem BioAssay AID504560 (Southern Research Specialized Biocontainment Screening …, 2011).

Tested on: human PBMC HIV-1 CCR5-tropic replication, RT activity
Assay: inhibitors of CCR5-tropic HIV-1 replication in PBMCs, dose response, cell-based, human PBMC, set 2 (AID 504560)

Row | Structure (SMILES) | IC50
1 | Cc1c2c(=O)n(-c3nc4ccccc4s3)nc-2cc(O)n1CCc1ccc(O)cc1 | 1510 nM
2 | Cc1c2c(=O)n(-c3nc4ccccc4s3)nc-2cc(O)n1C1CC1 | 720 nM
3 | Cc1c2c(=O)n(-c3nc4ccccc4s3)nc-2cc(O)n1Cc1cccs1 | 1970 nM
4 | Cc1c2c(=O)n(-c3nc4ccccc4s3)nc-2cc(O)n1CCC(C)C | 5400 nM
5 | COc1ccc(Cn2c(O)cc3nn(-c4nc5ccccc5s4)c(=O)c-3c2C)cc1 | 2290 nM
6 | COc1ccc(CCn2c(O)cc3nn(-c4nc5ccccc5s4)c(=O)c-3c2C)cc1 | 6110 nM
7 | Cc1c2c(=O)n(-c3nc4ccccc4s3)nc-2cc(O)n1Cc1ccncc1 | 1890 nM
8 | Cc1c2c(=O)n(-c3nc4ccccc4s3)nc-2cc(O)n1Cc1ccccc1Cl | 6310 nM
9 | Cc1c2c(=O)n(-c3nc4ccccc4s3)nc-2cc(O)n1Cc1cccnc1 | 920 nM
10 | Cc1c2c(=O)n(-c3nc4ccccc4s3)nc-2cc(O)n1CCc1cccs1 | 3470 nM
11 | Cc1c2c(=O)n(-c3nc4ccccc4s3)nc-2cc(O)n1Cc1ccccc1 | 2420 nM
12 | COc1ccccc1Cn1c(O)cc2nn(-c3nc4ccccc4s3)c(=O)c-2c1C | 5400 nM
13 | Cc1c2c(=O)n(-c3nc4ccccc4s3)nc-2cc(O)n1Cc1ccc(F)cc1 | 3140 nM
